Assay results taken from ChEMBL document CHEMBL4152189, “Incorporation of nitric oxide donor into 1,3-dioxyxanthones leads to synergistic anticancer activity” (Eur J Med Chem, 2018).

Columns and labels:
[1] = tested on: HepG2; assay: Induction of NO generation in human HepG2 cells assessed as nitrite levels at 0.66 uM after 60 hrs by Griess assay (reference value: 12.8 +/- 1.5 uM); format: functional
[2] = tested on: L02; assay: Induction of NO generation in human HL-7702 cells assessed as nitrite levels at 0.66 uM after 3 hrs by Griess assay (reference value: 11.6 +/- 1.2 uM); format: functional
[3] = tested on: HepG2; assay: Induction of NO generation in human HepG2 cells assessed as nitrite levels at 0.66 uM after 12 hrs by Griess assay (reference value: 12.7 +/- 1.8 uM); format: functional
[4] = tested on: HepG2; assay: Induction of NO generation in human HepG2 cells assessed as nitrite levels at 0.66 uM after 24 hrs by Griess assay (reference value: 12.8 +/- 1.7 uM); format: functional
[5] = tested on: MCF7; assay: Growth inhibition of human MCF7 cells after 24 hrs by MTT assay; format: functional, cell-based; details: MCF7, 24 h
[6] = tested on: HepG2; assay: Growth inhibition of human HepG2 cells after 24 hrs by MTT assay; format: functional, cell-based; details: HepG2, 24 h
[7] = tested on: HepG2; assay: Induction of NO generation in human HepG2 cells assessed as nitrite levels at 0.66 uM after 3 hrs by Griess assay (reference value: 12.8 +/- 1.5 uM); format: functional
[8] = tested on: HepG2; assay: Induction of NO generation in human HepG2 cells assessed as nitrite levels at 0.66 uM after 48 hrs by Griess assay (reference value: 12.8 +/- 1.7 uM); format: functional
[9] = tested on: L02; assay: Induction of NO generation in human HL-7702 cells assessed as nitrite levels at 0.66 uM after 48 hrs by Griess assay (reference value: 11.6 +/- 1.1 uM); format: functional
[10] = tested on: MDA-MB-231; assay: Growth inhibition of human MDA-MB-231 cells after 24 hrs by MTT assay; format: functional, cell-based; details: MDA-MB-231, 24 h
[11] = tested on: L02; assay: Induction of NO generation in human HL-7702 cells assessed as nitrite levels at 0.66 uM after 60 hrs by Griess assay (reference value: 11.8 +/- 1.3 uM); format: functional
[12] = tested on: L02; assay: Induction of NO generation in human HL-7702 cells assessed as nitrite levels at 0.66 uM after 12 hrs by Griess assay (reference value: 11.8 +/- 1.2 uM); format: functional
[13] = tested on: HepG2; assay: Induction of NO generation in human HepG2 cells assessed as nitrite levels at 0.66 uM after 1 hr by Griess assay (reference value: 12.9 +/- 1.5 uM); format: functional
[14] = tested on: L02; assay: Induction of NO generation in human HL-7702 cells assessed as nitrite levels at 0.66 uM after 6 hrs by Griess assay (reference value: 11.8 +/- 1.1 uM); format: functional
[15] = tested on: L02; assay: Induction of NO generation in human HL-7702 cells assessed as nitrite levels at 0.66 uM after 24 hrs by Griess assay (reference value: 11.6 +/- 1.1 uM); format: functional
[16] = tested on: L02; assay: Induction of NO generation in human HL-7702 cells assessed as nitrite levels at 0.66 uM after 1 hr by Griess assay (reference value: 11.6 +/- 1.1 uM); format: functional
[17] = tested on: HepG2; assay: Induction of NO generation in human HepG2 cells assessed as nitrite levels at 0.66 uM after 6 hrs by Griess assay (reference value: 12.6 +/- 1.1 uM); format: functional

O=[N+]([O-])OCCCCCO
Activity [1]: 17.1 µM
Activity [2]: 13.8 µM
Activity [3]: 26 µM
Activity [4]: 29.2 µM
IC50 [5]: 102 µM
IC50 [6]: 72.8 µM
Activity [7]: 18.4 µM
Activity [8]: 24.6 µM
Activity [9]: 13.4 µM
IC50 [10]: 140 µM
Activity [11]: 13.3 µM
Activity [12]: 17.5 µM
Activity [13]: 16.2 µM
Activity [14]: 16 µM
Activity [15]: 14.1 µM
Activity [16]: 13.5 µM
Activity [17]: 23.3 µM
